Data reported in patent US12589143B2, “Human anti-PD-L1 peptide vaccines and methods of their use” (priority 2019, dated 2026).
Where “and” joins values, the source holds several entries; their conditions need not be identical. Equal entries are not always repeated. Where no end group is shown, it is not given here.

Test system: MVF-PD-L1 peptide immunogen
Assay: Immunogenicity in Balb/c mice, experiment 1 (CT26 WT): ELISA of sera vs each MVF-PD-L1 peptide immunogen
Assay type: in vivo
Conditions: for Immunogenicity (titers) 1′ Conc. 1:: Balb/c mice
Procedure: Immunogenicity of MVF-PD-L1 B-cell epitopes. New Zealand White rabbits were immunized with 1 mg of each MVF-peptide immunogens dissolved in dd H2O emulsified (1:1) in Montanide ISA 720 vehicle (Seppic) with 333 μg of N-acetylglucosamine-3yl-acetyl-1-alanyl-d-isoglutamine (nor-MDP). Rabbits were boosted with the same doses at 3-week's intervals. Blood was collected via the central auricular artery in rabbits. Blood was collected weekly (1Y+3, 2Y+1, 2Y+2,2Y+3, 3Y+1, 3Y+2 and sera tested for antibody titers by ELISA using the immunogens MVF-PD-L1 peptides. Sera (terminal) from rabbit (3Y+3) immunized with MVF-PD-1 peptide immunogens were tested individually versus the immunogen by ELISA. 200 ng/well peptide were used in duplicates to coat the ELISA plates. Titers are defined as the highest dilution of sera with an absorbance value of 0.2 after subtracting the blank.
FIGS. 5A, 5B, 5C, and 5D show the experimental scheme to test the immunization with PD-L1 in Balb/c mice. […] Balb/c mice 6-8 weeks old, were immunized with MVF-peptide immunogens emulsified in ISA 720 with nor-MDP three times and three weeks apart. Mice were immunized with MVF-PD-L1 vaccine constructs [PD-L1(36-53), PD-L1(50-67), PD-L1(95-112), PD-L1(130-147)] prior to tumor challenge. Blood was collected weekly and sera tested for antibody titers by ELISA. Two weeks after the third immunization (3Y), the mice were engrafted with CT26 WT tumor cells 10^5 per mouse Control mice were treated twice weekly with PBS as negative control and twice weekly with anti-mPD-L1 mAb (10F.9G2) as positive control starting 2 days after tumor challenge. Tumor growths were observed twice weekly and measured by calipers.
Immunogenicity of MVF-PD-L1 peptides in BALB/c mice immunized with various peptide constructs. Sera collected weekly were tittered against each individual MVF-PD-L1 peptide immunogen. The Pink bar refers to titers versus PD-L1 130 and the red bar refers to titers versus PD-1 (92-110).
In order to verify the efficacy of the PD-L1 epitope vaccines in vivo in the CT26 carcinoma cell line, Balb/c mice (10 mice/group) were immunized with 100 μg each of MVF-PD-L1 (36-53), MVF-PD-L1 (50-67), MVF-PD-L1 (95-112) and MVF-PD-L1 (130-147) emulsified with nor-MDP and Montanide 720 (1:1 ratio) SCHEME 1A (FIG. 5A). As detailed in SCHEME 1A-D (FIGS. 5A, 5B, 5C, and 5D), mice were immunized 3 times at 3 weeks intervals. […] All PD-L1 epitopes elicited high titers of PD-L1 anti-peptide antibodies by ELISA. […] We also investigated the combination of PD-1(92-110) with PD-L1-130-147.
For each peptide, vaccine antibodies were raised in New Zealand white rabbits, purchased from Charles River Laboratories (Wilmington, MA, USA). Rabbits were immunized with 1 mg of MVF chimeric peptide emulsified in Montanide ISA 720 (Seppic, Paris, France) and boosted 3 times at three week intervals. For mouse experiments, mice, 6-8 weeks old, were immunized with 0.1 mg of peptide emulsified in ISA720 (1:1 ratio). Mice were boosted with the respective doses at 3-week intervals. Blood was then collected and sera were tested for antibody titers. Sera were collected weekly and peptide vaccine antibodies were purified by affinity chromatography using a protein A/G column and the concentration was measured using Spectrophometer. All experiments were performed in accordance with the U.S. Public Health Service Policy on Humane Care and Use of Laboratory animals and approved by the Ohio State University Institutional Animals Care and Use Committee, detailed in the accepted protocol.
6-8 weeks old BALB/c mice (Charles River, Wilmington, MA) were used as standard animal models. Mouse CT26 colon carcinoma cell line was purchased from American Type Culture Collection Cells and were regularly cultured in RPMI1640 medium containing 10% FBS. CT26/HER2 cells were kindly provided by M. Penichet. Vaccines were dissolved in sterile water and emulsified in Montanide ISA 720 (1:1). […]

For “KLLSLIKGVIVHRLEGVEGPSLLIVYWEMEDKNIIQFVHG (KLLSLIKGVIVHRLEGVEGPSLLIVYWEMEDKNIIQFVHG-NH2) [PD-L1(36)]”, the “Immunogenicity (titers) 1′ Conc. 1:” value (bleed 1Y + 3) was 400, the “Immunogenicity (titers) 1′ Conc. 1:” value (bleed 2Y + 1) was 1600 and the “Immunogenicity (titers) 1′ Conc. 1:” value (bleed 2Y + 2) was 6400. For the same sequence, the “Immunogenicity (titers) 1′ Conc. 1:” value (bleed 2Y + 3) was 16000, the “Immunogenicity (titers) 1′ Conc. 1:” value (bleed 3Y + 1) was 16000 and the “Immunogenicity (titers) 1′ Conc. 1:” value (bleed 3Y + 2) was 16000. The “Immunogenicity (titers) 1′ Conc. 1:” value (bleed 3Y + 3) was 16000, the “ELISA absorbance of sera” value (bleed 1Y + 3 (1to100), dilution 100) was 0.598 and 0.583 and the “ELISA absorbance of sera” value (bleed 1Y + 3 (1to100), dilution 200) was 0.352 and 0.300. The “ELISA absorbance of sera” value (bleed 1Y + 3 (1to100), dilution 400) was 0.212 and 0.200, the “ELISA absorbance of sera” value (bleed 1Y + 3 (1to100), dilution 800) was 0.117 and 0.088 and the “ELISA absorbance of sera” value (bleed 1Y + 3 (1to100), dilution 1,600) was 0.063 and 0.046. For the same sequence, the “ELISA absorbance of sera” value (bleed 1Y + 3 (1to100), dilution 3,200) was 0.032 and 0.027, the “ELISA absorbance of sera” value (bleed 1Y + 3 (1to100), dilution 6,400) was 0.014 and 0.010 and the “ELISA absorbance of sera” value (bleed 1Y + 3 (1to100), dilution 12,800) was 0.010 and 0.006. For the same sequence, the “ELISA absorbance of sera” value (bleed 2Y + 1 (1to100), dilution 100) was 1.031 and 0.901, the “ELISA absorbance of sera” value (bleed 2Y + 1 (1to100), dilution 200) was 0.815 and 0.784 and the “ELISA absorbance of sera” value (bleed 2Y + 1 (1to100), dilution 400) was 0.601 and 0.591. For the same sequence, the “ELISA absorbance of sera” value (bleed 2Y + 1 (1to100), dilution 800) was 0.408 and 0.394, the “ELISA absorbance of sera” value (bleed 2Y + 1 (1to100), dilution 1,600) was 0.273 and 0.203 and the “ELISA absorbance of sera” value (bleed 2Y + 1 (1to100), dilution 3,200) was 0.163 and 0.116. For the same sequence, the “ELISA absorbance of sera” value (bleed 2Y + 1 (1to100), dilution 6,400) was 0.090 and 0.067, the “ELISA absorbance of sera” value (bleed 2Y + 1 (1to100), dilution 12,800) was 0.049 and 0.031 and the “ELISA absorbance of sera” value (bleed 2Y + 2 (1to100), dilution 100) was 1.281 and 1.251. For the same sequence, the “ELISA absorbance of sera” value (bleed 2Y + 2 (1to100), dilution 200) was 1.162 and 1.137, the “ELISA absorbance of sera” value (bleed 2Y + 2 (1to100), dilution 400) was 1.033 and 1.019 and the “ELISA absorbance of sera” value (bleed 2Y + 2 (1to100), dilution 800) was 0.975 and 0.820. For the same sequence, the “ELISA absorbance of sera” value (bleed 2Y + 2 (1to100), dilution 1,600) was 0.691 and 0.602, the “ELISA absorbance of sera” value (bleed 2Y + 2 (1to100), dilution 3,200) was 0.460 and 0.389 and the “ELISA absorbance of sera” value (bleed 2Y + 2 (1to100), dilution 6,400) was 0.299 and 0.248. The “ELISA absorbance of sera” value (bleed 2Y + 3 (1to1k), dilution 100) was 0.855 and 0.817, the “ELISA absorbance of sera” value (bleed 2Y + 3 (1to1k), dilution 200) was 0.695 and 0.612 and the “ELISA absorbance of sera” value (bleed 2Y + 3 (1to1k), dilution 400) was 0.530 and 0.500. The “ELISA absorbance of sera” value (bleed 2Y + 3 (1to1k), dilution 800) was 0.393 and 0.359, the “ELISA absorbance of sera” value (bleed 2Y + 3 (1to1k), dilution 1,600) was 0.273 and 0.257 and the “ELISA absorbance of sera” value (bleed 2Y + 3 (1to1k), dilution 3,200) was 0.155 and 0.146. For the same sequence, the “ELISA absorbance of sera” value (bleed 2Y + 3 (1to1k), dilution 6,400) was 0.074 and 0.049, the “ELISA absorbance of sera” value (bleed 3Y + 1 (1to1k), dilution 100) was 0.966 and 0.923 and the “ELISA absorbance of sera” value (bleed 3Y + 1 (1to1k), dilution 200) was 0.785 and 0.691. For the same sequence, the “ELISA absorbance of sera” value (bleed 3Y + 1 (1to1k), dilution 400) was 0.599 and 0.565, the “ELISA absorbance of sera” value (bleed 3Y + 1 (1to1k), dilution 800) was 0.444 and 0.406 and the “ELISA absorbance of sera” value (bleed 3Y + 1 (1to1k), dilution 1,600) was 0.308 and 0.291. For the same sequence, the “ELISA absorbance of sera” value (bleed 3Y + 1 (1to1k), dilution 3,200) was 0.175 and 0.165, the “ELISA absorbance of sera” value (bleed 3Y + 1 (1to1k), dilution 6,400) was 0.084 and 0.056 and the “ELISA absorbance of sera” value (bleed 3Y + 2 (1to1k), dilution 100) was 1.202 and 1.225. For the same sequence, the “ELISA absorbance of sera” value (bleed 3Y + 2 (1to1k), dilution 200) was 0.934 and 0.949, the “ELISA absorbance of sera” value (bleed 3Y + 2 (1to1k), dilution 400) was 0.658 and 0.662 and the “ELISA absorbance of sera” value (bleed 3Y + 2 (1to1k), dilution 800) was 0.405 and 0.424. The “ELISA absorbance of sera” value (bleed 3Y + 2 (1to1k), dilution 1,600) was 0.240 and 0.228, the “ELISA absorbance of sera” value (bleed 3Y + 2 (1to1k), dilution 3,200) was 0.151 and 0.130 and the “ELISA absorbance of sera” value (bleed 3Y + 2 (1to1k), dilution 6,400) was 0.077. The “ELISA absorbance of sera” value (bleed 3Y + 3 (1to1k), dilution 100) was 1.269 and 1.387, the “ELISA absorbance of sera” value (bleed 3Y + 3 (1to1k), dilution 200) was 0.919 and 1.048 and the “ELISA absorbance of sera” value (bleed 3Y + 3 (1to1k), dilution 400) was 0.666 and 0.772. For the same sequence, the “ELISA absorbance of sera” value (bleed 3Y + 3 (1to1k), dilution 800) was 0.418 and 0.430, the “ELISA absorbance of sera” value (bleed 3Y + 3 (1to1k), dilution 1,600) was 0.246 and 0.257 and the “ELISA absorbance of sera” value (bleed 3Y + 3 (1to1k), dilution 3,200) was 0.081 and 0.119. The “ELISA absorbance of sera” value (bleed 3Y + 3 (1to1k), dilution 6,400) was 0.025.
